Reference: patent US9169260B2 (MERCK SHARP & DOHME CORP., priority 2011, dated 2015)

Target: GST tagged IRAK-4 (Homo sapiens (Human), UniProt Q9NWZ3)
Assay: IRAK-4 Kinase Assay (IMAP fluorescence polarization)
Assay type: biochemical
Conditions: 100 μM ATP, 30 minutes at 25° C.
How it was run: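 Activity was read by IMAP fluorescence polarization, where phosphopeptide binding to M(III) nanoparticles raises FP. The 30-minute, 25° C reaction used 100 μM ATP, 100 nM RP7030 substrate and 0.5 nM GST-IRAK-4 in pH 7.2 Tris buffer with MgCl2, DTT and Tween 20.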

Sequence of GST tagged IRAK-4 (Q9NWZ3 whole entry): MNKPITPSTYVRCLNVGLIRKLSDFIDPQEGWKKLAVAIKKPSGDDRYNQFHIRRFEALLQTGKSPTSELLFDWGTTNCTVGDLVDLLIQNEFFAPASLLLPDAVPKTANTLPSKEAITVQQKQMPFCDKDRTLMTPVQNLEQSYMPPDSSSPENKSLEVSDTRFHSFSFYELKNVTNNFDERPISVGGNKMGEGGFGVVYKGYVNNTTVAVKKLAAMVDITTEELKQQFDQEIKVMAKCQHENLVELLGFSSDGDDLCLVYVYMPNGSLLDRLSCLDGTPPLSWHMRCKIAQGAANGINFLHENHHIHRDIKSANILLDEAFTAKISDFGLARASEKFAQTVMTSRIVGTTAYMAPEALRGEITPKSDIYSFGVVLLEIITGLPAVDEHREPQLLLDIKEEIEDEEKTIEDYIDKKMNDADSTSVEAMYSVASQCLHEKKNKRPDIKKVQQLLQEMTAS

IC50 | IC50 (μM) | Compound
< 0.1 µM |  | CC(C)(N)c1ccc(-n2nc(C3CCN(S(C)(=O)=O)CC3)cc2NC(=O)c2cnn3cccnc23)nc1 [Example 159, N-(1-(5-(2-aminopropan-2-yl)pyridin-2-yl)-3-(1-(methylsulfonyl)piperidin-4-yl)-1H-pyrazol-5-yl)pyrazolo[1,5-a]pyrimidine-3-carboxamide]
 | < 1 µM | Cc1nn(C)c2nc(-n3nc(C4CCN(S(C)(=O)=O)CC4)cc3NC(=O)c3cnn4cccnc34)ccc12 [Example 175, N-(1-(1,3-dimethyl-1H-pyrazolo[3,4-b]pyridin-6-yl)-3-(1-(methylsulfonyl)piperidin-4-yl)-1H-pyrazol-5-yl)pyrazolo[1,5-a]pyrimidine-3-carboxamide]
 | < 1 µM | COc1ccc(S(=O)(=O)N2CCC(c3cc(NC(=O)c4cnn5cccnc45)n(-c4ccc(C)cc4)n3)CC2)cn1 [Example 389, N-[3-{1-[(6-methoxypyridin-3-yl)sulfonyl]piperidin-4-yl}-1-(4-methylphenyl)-1H-pyrazol-5-yl]pyrazolo[1,5-a]pyrimidine-3-carboxamide]
 | < 1 µM | Cc1ccc(-n2nc(C3CN(Cc4ccccn4)C3)cc2NC(=O)c2cnn3cccnc23)cc1 [Example 308, N-{1-(4-methylphenyl)-3-[1-(pyridin-2-ylmethyl)azetidin-3-yl]-1H-pyrazol-5-yl}pyrazolo[1,5-a]pyrimidine-3-carboxamide]
 | < 1 µM | Cc1ccc(-n2nc(C3CN(Cc4cc(C)on4)C3)cc2NC(=O)c2cnn3cccnc23)cc1 [Example 311, N-[3-{1-[(5-methylisoxazol-3-yl)methyl]azetidin-3-yl]-1-(4-methylphenyl)-1H-pyrazol-5-yl}pyrazolo[1,5-a]pyrimidine-3-carboxamide]
 | < 1 µM | Cc1ccc(-n2nc(-c3csc(N4CCOCC4)n3)cc2NC(=O)c2cnn3cccnc23)cc1 [Example 335, N-[1-(4-methylphenyl)-3-(2-morpholin-4-yl-1,3-thiazol-4-yl)-1H-pyrazol-5-yl]pyrazolo[1,5-a]pyrimidine-3-carboxamide]
 | > 1 µM | COc1ccc(-n2nc(C3CCN(S(=O)(=O)C(F)(F)F)CC3)cc2NC(=O)c2cnn3cccnc23)cc1 [Example 30, N-(1-(4-methoxyphenyl)-3-(1-((trifluoromethyl)sulfonyl)piperidin-4-yl)-1H-pyrazol-5-yl)pyrazolo[1,5-a]pyrimidine-3-carboxamide]

The next lines start with the molecule.

Compound | IC50 | IC50 (μM)
Cc1ccc(-n2nc(C3CCN(S(C)(=O)=O)CC3)cc2NC(=O)c2cnn3cc(C(N)=O)cnc23)cc1 [Example 120, N3-(3-(1-(methylsulfonyl)piperidin-4-yl)-1-(p-tolyl)-1H-pyrazol-5-yl)pyrazolo[1,5-a]pyrimidine-3,6-dicarboxamide] | < 0.1 µM | 
Cc1ccc(-n2nc(C3CCN(C4Cc5ccccc5C4)CC3)cc2NC(=O)c2cnn3cccnc23)nc1 [Example 282, N-{3-[1-(2,3-dihydro-1H-inden-2-yl)piperidin-4-yl]-1-(5-methylpyridin-2-yl)-1H-pyrazol-5-yl}pyrazolo[1,5-a]pyrimidine-3-carboxamide] | < 0.1 µM | 
Cc1ccc(-n2nc(C3CCNCC3)cc2NC(=O)c2cnn3cccnc23)c(F)c1 [Example 56, N-(1-(2-fluoro-4-methylphenyl)-3-(piperidin-4-yl)-1H-pyrazol-5-yl)pyrazolo[1,5-a]pyrimidine-3-carboxamide] | < 0.1 µM | 
Cc1ccc(-n2nc(C3CCN(S(=O)(=O)c4cccc(C#N)c4)CC3)cc2NC(=O)c2cnn3cccnc23)cc1 [Example 374, N-[3-{1-[(3-cyanophenyl)sulfonyl]piperidin-4-yl}-1-(4-methylphenyl)-1H-pyrazol-5-yl]pyrazolo[1,5-a]pyrimidine-3-carboxamide] |  | < 1 µM
CCCCS(=O)(=O)N1CCC(c2cc(NC(=O)c3cnn4cccnc34)n(-c3ccc(C)cc3)n2)CC1 [Example 369, N-{3-[1-(butylsulfonyl)piperidin-4-yl]-1-(4-methylphenyl)-1H-pyrazol-5-yl}pyrazolo[1,5-a]pyrimidine-3-carboxamide] |  | < 1 µM
